From ChEMBL document CHEMBL2203226, “PPAR-γ agonistic metabolites from the ascidian Herdmania momus” (J Nat Prod, 2012)
Converted amounts (≈) assume the structure as drawn. The source made the active and inactive calls. The rule behind the calls is not given here.

Columns and labels:
[1] = biological target: T1, Peroxisome proliferator-activated receptor gamma (Homo sapiens) (UniProt P37231); assay: Agonist activity at full length human PPARgamma transfected in rat Ac2F cells cotransfected with PPRE-TK-luc assessed as induction of transactivation activity at 10 ug/ml by luciferase reporter gene assay relative to control; type: functional, cell-based
T1 sequence (whole entry): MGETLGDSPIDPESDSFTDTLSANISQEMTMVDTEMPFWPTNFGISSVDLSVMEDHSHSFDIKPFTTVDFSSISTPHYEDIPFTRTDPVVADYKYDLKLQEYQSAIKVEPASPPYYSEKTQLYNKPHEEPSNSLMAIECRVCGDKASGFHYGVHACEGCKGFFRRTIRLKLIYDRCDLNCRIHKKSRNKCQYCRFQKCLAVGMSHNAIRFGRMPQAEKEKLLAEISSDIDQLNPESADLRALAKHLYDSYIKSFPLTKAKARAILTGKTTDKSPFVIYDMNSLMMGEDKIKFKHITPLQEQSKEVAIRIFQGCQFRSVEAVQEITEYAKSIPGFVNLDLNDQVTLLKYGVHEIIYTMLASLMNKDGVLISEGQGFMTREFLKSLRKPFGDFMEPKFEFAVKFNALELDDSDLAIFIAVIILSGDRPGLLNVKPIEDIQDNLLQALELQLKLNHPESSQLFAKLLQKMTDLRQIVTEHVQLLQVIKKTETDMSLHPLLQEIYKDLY

[2] = biological target: T1, Peroxisome proliferator-activated receptor gamma (Homo sapiens); assay: Agonist activity at full length human PPARgamma transfected in rat Ac2F cells cotransfected with PPRE-TK-luc assessed as induction of transactivation activity at 1 ug/ml by luciferase reporter gene assay relative to control; type: functional, cell-based
[3] = Antioxidant activity assessed as radical scavenging activity by NBT reduction assay; type: functional
[4] = system: Radical scavenging activity; assay: Antioxidant activity assessed as DPPH radical scavenging activity; type: functional

Activity [1]	Activity [2]	IC50 [3] [µg/mL]	IC50 [4] [µg/mL]	Structure (SMILES)
Active	Active	–	–	O=C(N[C@H](Cc1c[nH]cn1)C(=O)O)C(=O)c1c[nH]c2cc(O)ccc12
–	–	1.78 (≈ 5.91 µM)	2.31 (≈ 7.67 µM)	N[C@@H](Cc1ccc(OC(=O)c2ccc(O)cc2)cc1)C(=O)O
Active	Active	–	–	N[C@H](CCCCNC(=O)C(=O)c1c[nH]c2cc(O)ccc12)C(=O)O
Active	Active	–	–	N=C(N)NCCC[C@@H](NC(=O)C(=O)c1c[nH]c2cc(O)ccc12)C(=O)O
